Results from ChEMBL document CHEMBL3885861, “Open TG-GATES”.

Species on record: Rattus norvegicus
Experiment: Open TG-GATES - Regimen: Single
Assay type: toxicity, organism-based, Sprague-Dawley
Parameters: regimen Single, gender Male, age 6 weeks
Settings: in vivo, iv, route intravenous injection; for KIDNEY_L / KIDNEY_R / KIDNEY_TOTAL: tissue Kidney; for LIVER: tissue Liver
[1] = 10 mg/kg, 3 h, tissue Blood, dose level Low
[2] = 10 mg/kg, 3 h, tissue Plasma, dose level Low
[3] = 10 mg/kg, 6 h, tissue Blood, dose level Low
[4] = 10 mg/kg, 6 h, tissue Plasma, dose level Low
[5] = 10 mg/kg, 9 h, tissue Blood, dose level Low
[6] = 10 mg/kg, 9 h, tissue Plasma, dose level Low
[7] = 10 mg/kg, 24 h, tissue Blood, dose level Low
[8] = 10 mg/kg, 24 h, tissue Plasma, dose level Low

Sequence: CARBOPLATIN
- Bas [1]: 0%
- Eos [1]: 1%
- Fbg [1]: 269.2 mg/dL
- Hb [1]: 12.9 g/dL
- Lym [1]: 80.4%
- MCH [1]: 21.1 pg
- MCHC [1]: 32%
- MCV [1]: 66 fL
- Mono [1]: 2.4%
- PT [1]: 15.4 s
- Plat [1]: 126.7 x10_4/uL
- RBC [1]: 612.6 x10_4/ul
- Ret [1]: 6.2%
- WBC [1]: 92.7 x10_2/uL
- KIDNEY_L (10 mg/kg, 3 h, dose level Low): 1 g
- KIDNEY_R (10 mg/kg, 3 h, dose level Low): 0.9 g
- KIDNEY_TOTAL (10 mg/kg, 3 h, dose level Low): 1.9 g
- LIVER (10 mg/kg, 3 h, dose level Low): 9.7 g
- ALP [2]: 1526 IU/L
- ALT [2]: 43.6 IU/L
- AST [2]: 85.4 IU/L
- CRE [2]: 0.2 mg/dL
- DBIL [2]: 0.002 mg/dL
- GLC [2]: 185 mg/dL
- IP [2]: 7.9 mg/dL
- K [2]: 3.9 meq/L
- LDH [2]: 228.2 IU/L
- PL [2]: 124.8 mg/dL
- RALB [2]: 2.9 g/dL
- TBIL [2]: 0.016 mg/dL
- TC [2]: 68.4 mg/dL
- TG [2]: 55.2 mg/dL
- TP [2]: 5.2 g/dL
- gamma-GTP [2]: 1.2 IU/L
- TERMINAL_BW (10 mg/kg, 6 h, dose level Low): 204.9 g
- APTT [3]: 24.2 s
- Bas [3]: 0%
- Eos [3]: 1%
- Fbg [3]: 286.8 mg/dL
- Ht [3]: 41.2%
- Lym [3]: 77.6%
- MCH [3]: 20.6 pg
- MCHC [3]: 32.2%
- MCV [3]: 64 fL
- Mono [3]: 2.8%
- Neu [3]: 17.8%
- PT [3]: 15.9 s
- Plat [3]: 131 x10_4/uL
- RBC [3]: 643.6 x10_4/ul
- Ret [3]: 6.3%
- WBC [3]: 115.8 x10_2/uL
- KIDNEY_L (10 mg/kg, 6 h, dose level Low): 1 g
- KIDNEY_R (10 mg/kg, 6 h, dose level Low): 1 g
- KIDNEY_TOTAL (10 mg/kg, 6 h, dose level Low): 2 g
- LIVER (10 mg/kg, 6 h, dose level Low): 9.1 g
- ALP [4]: 1291.4 IU/L
- ALT [4]: 43.4 IU/L
- BUN [4]: 10 mg/dL
- CRE [4]: 0.2 mg/dL
- DBIL [4]: 0 mg/dL
- GLC [4]: 180.6 mg/dL
- IP [4]: 9.1 mg/dL
- K [4]: 4.3 meq/L
- LDH [4]: 174.2 IU/L
- PL [4]: 134.6 mg/dL
- RALB [4]: 3 g/dL
- TBIL [4]: 0.016 mg/dL
- TC [4]: 72.8 mg/dL
- TG [4]: 76.2 mg/dL
- TP [4]: 5.5 g/dL
- gamma-GTP [4]: 1.6 IU/L
- TERMINAL_BW (10 mg/kg, 9 h, dose level Low): 197.5 g
- APTT [5]: 25.3 s
- Bas [5]: 0%
- Eos [5]: 1%
- Fbg [5]: 294.6 mg/dL
- Ht [5]: 40.2%
- Lym [5]: 73%
- MCHC [5]: 32.6%
- Mono [5]: 2.4%
- Neu [5]: 23.4%
- PT [5]: 15.7 s
- Plat [5]: 131.4 x10_4/uL
- RBC [5]: 644.2 x10_4/ul
- Ret [5]: 5.7%
- WBC [5]: 86.3 x10_2/uL
- KIDNEY_L (10 mg/kg, 9 h, dose level Low): 0.9 g
- KIDNEY_R (10 mg/kg, 9 h, dose level Low): 0.9 g
- KIDNEY_TOTAL (10 mg/kg, 9 h, dose level Low): 1.8 g
- LIVER (10 mg/kg, 9 h, dose level Low): 8 g
- ALP [6]: 1344 IU/L
- ALT [6]: 37.4 IU/L
- AST [6]: 77 IU/L
- BUN [6]: 11.2 mg/dL
- CRE [6]: 0.2 mg/dL
- DBIL [6]: 0 mg/dL
- GLC [6]: 177.8 mg/dL
- IP [6]: 9.3 mg/dL
- K [6]: 4.4 meq/L
- LDH [6]: 180.2 IU/L
- Na [6]: 140 meq/L
- PL [6]: 121 mg/dL
- RALB [6]: 2.9 g/dL
- TBIL [6]: 0.012 mg/dL
- TC [6]: 71.8 mg/dL
- TG [6]: 44.6 mg/dL
- TP [6]: 5.3 g/dL
- gamma-GTP [6]: 1.4 IU/L
- TERMINAL_BW (10 mg/kg, 24 h, dose level Low): 204.3 g
- APTT [7]: 23.3 s
- Bas [7]: 0%
- Eos [7]: 0.6%
- Fbg [7]: 298.2 mg/dL
- Ht [7]: 40.6%
- Lym [7]: 80.2%
- MCHC [7]: 32.1%
- MCV [7]: 63.8 fL
- Mono [7]: 2.8%
- PT [7]: 16.6 s
- Plat [7]: 122.3 x10_4/uL
- RBC [7]: 637.8 x10_4/ul
- Ret [7]: 4.7%
- WBC [7]: 78.9 x10_2/uL
- KIDNEY_L (10 mg/kg, 24 h, dose level Low): 0.9 g
- KIDNEY_R (10 mg/kg, 24 h, dose level Low): 1 g
- KIDNEY_TOTAL (10 mg/kg, 24 h, dose level Low): 1.9 g
- LIVER (10 mg/kg, 24 h, dose level Low): 9 g
- ALP [8]: 1748.8 IU/L
- AST [8]: 69.8 IU/L
- BUN [8]: 15.6 mg/dL
- CRE [8]: 0.2 mg/dL
- DBIL [8]: 0 mg/dL
- GLC [8]: 180.8 mg/dL
- IP [8]: 7.2 mg/dL
- K [8]: 4.5 meq/L
- LDH [8]: 208.6 IU/L
- PL [8]: 140.6 mg/dL
- RALB [8]: 3.1 g/dL
- TBIL [8]: 0.006 mg/dL
- TC [8]: 74.2 mg/dL
- TG [8]: 75.6 mg/dL
- TP [8]: 5.5 g/dL
- gamma-GTP [8]: 1.6 IU/L
- TERMINAL_BW (30 mg/kg, 3 h, dose level Middle): 205.5 g
